Source: PMC10482267, “Safety, tolerability, pharmacokinetics, and pharmacodynamics of single and multiple doses of aficamten in healthy Chinese participants: a randomized, double-blind, placebo-controlled, phase 1 study” (Frontiers in Pharmacology, 2023)
Like-named read-outs stand apart in the source and are kept apart here.

Experiment: Urine pharmacokinetics of aficamten, MD cohort
Assay type: in vivo, human
Settings: for Ae(0–24) (amount excreted unchanged in urine) / CL renal: MD 5 mg, mean ± SD; for CL renal: human, urine, oral, 5 mg, read-out: CLr (renal clearance) (converted)
Experimental: Blood samples (4 mL) for plasma PK analysis of aficamten and its metabolites (mono-hydroxylated derivative CK-3834282 and its diastereomer CK-3834283) were collected into K2EDTA tubes in the SAD cohorts at the following time points: at pre-dose and at 0.25, 0.5, 1, 1.5, 2, 2.5, 3, 4, 6, 8, 12, 16, 24, 36, 48, 72, 96, and 216 h post-dose. In the MD cohort, blood samples were collected at pre-dose and at 0.25, 0.5, 1, 1.5, 2, 2.5, 3, 4, 6, 8, 12, and 16 h post-dose on day 1; at pre-dose and at 1.5 h post-dose on day 2, days 4–6, and day 9; at pre-dose on day 3, days 7–8, and days 10–13; at pre-dose and at 0.25, 0.5, 1, 1.5, 2, 2.5, 3, 4, 6, 8, 12, 16, 24, 36, 48, 72, 168, and 216 h post-dose on day 14. After collection, blood samples were centrifuged at 1700 g for 10 min at 4°C ± 2°C; plasma was aliquoted and stored at −80°C ± 20°C until analyzed. Meanwhile, samples for urine PK analysis of aficamten were collected in the MD cohort as follows: pre-dose, 0–4 h, 4–8 h, 8–12 h, and 12–24 h on days 1 and 14, respectively.
The samples were determined using a validated ultra-performance liquid chromatography-tandem mass spectrometry (UPLC-MS/MS) method. The detection was performed on a tandem mass spectrometer in the electrospray ionization (ESI)-positive mode. The multiple reactions monitoring (MRM) mode was applied to monitor the following ion transitions: m/z 338.2→213.2 for aficamten and m/z 354.3→ 229.3 for metabolite CK-3834282 and its diastereomer CK-3834283. Note that the diastereomers were separated from chromatography during the analysis. The calibration curves of the plasma and urine samples were linear, ranging from 1 to 500 ng/mL, and the intra- and inter-run accuracies (RE%) and precisions (RSD%) were within ±15%. In addition, the selectivity, matrix effect, extraction recovery, carryover, and stability at different conditions were also fully evaluated.
The urine PK parameters (MD cohort) were calculated as follows: CLR (renal clearance), Ae (amount of drug excreted unchanged in the urine), and Fe (percentage of drug excreted unchanged in the urine).

Question: For CCc1nc(-c2ccc3c(c2)CC[C@H]3NC(=O)c2cnn(C)c2)no1 [aficamten], which “Ae(0–24) (amount excreted unchanged in urine)” value (day 1, urine) is on record?
Answer: 3.2 ± 2.6 µg

Question: What about the “Ae(0–24) (amount excreted unchanged in urine)” value (day 14, urine) of the same compound?
Answer: 18.5 ± 8.0 µg

Question: And the CL renal (day 1, urine)?
Answer: 0.158 mL/min

Question: And the CL renal (day 14, urine)?
Answer: 0.228 mL/min

Question: What about the “drug excreted with urine in unchanged form” value (multiple doses of 5 mg) of the same compound?
Answer: about 0.37%
